Measurements published in patent US10238670B2, “9-aminomethyl minocycline compounds and methods of use thereof in urinary tract infection (UTI) treatment” (Paratek Pharmaceuticals, Inc., priority 2016, dated 2019).

Experiment: Phase 1b study in female adults with cystitis, urine PK
Assay type: in vivo, human
Conditions: urine
Protocol: Urine was collected, the volume recorded, and analyzed for Compound 1 concentration at the following times: • Day 1 to 2: pooled total urine 0 to 4, 4 to 8, 8 to 12, and 12-24 hours after the t=0 h dose; Collection of the 12 to 24 h sample should be completed prior to the t=24 h dose on Day 2; • Day 5 to 6: pooled total urine 0 to 4, 4 to 8, 8 to 12, and 12-24 hours after the t=96 h dose;
Urine was pooled during the intervals above. At the end of each interval, the time and total volume were recorded.
Compound 1 urine concentration data was used to determine the amount excreted in a dosing interval, the urinary excretion rate, and, in conjunction with the plasma concentration data, to estimate the renal clearance (CLr) of Compound 1.
Urine was collected and the volume recorded at the following times: • Day 1 to 2: pooled total urine 0 to 4, 4 to 8, 8 to 12, and 12-24 hours after the t=0 h dose; • Day 5 to 6: pooled total urine 0 to 4, 4 to 8, 8 to 12, and 12-24 hours after the t=96 h dose;
At the end of each collection time period the pooled urine was frozen at −20° C. or colder and the total volume of urine collected for the time period was recorded. The samples were kept frozen at −20° C. or colder pending shipment to the bioanalytical laboratory.
The urine sample volume, its Compound 1 concentration, the amount of Compound 1 excreted in the urine (product of volume and concentration) over a dosing interval, the urinary excretion rates and renal clearance (CLr) of Compound 1 following the initial Day 1 and final Day 5 doses were summarized by the treatment groups.

CN(C)c1cc(CNCC(C)(C)C)c(O)c2c1C[C@H]1C[C@H]3[C@H](N(C)C)C(O)=C(C(N)=O)C(=O)[C@@]3(O)C(O)=C1C2=O [Compound 1, 9-[(2,2-dimethyl-propylamino)-methyl]-minocycline]
Ae 12-24 hrs, Mean (Day 1, IV_PO300): 14.00 mg | Ae 12-24 hrs, Median (Day 1, IV_PO300): 12.32 mg | Fe 0-24 hrs, Geo. Mean (Day 1, IV_PO300): 18.49% | Fe 0-24 hrs, Mean (Day 1, IV_PO300): 20.35% | Fe 0-24 hrs, Median (Day 1, IV_PO300): 20.70% | Ae 0-4 hrs, Geo. Mean (Day 1, PO300): 5.90 mg | Ae 0-4 hrs, Mean (Day 1, PO300): 6.41 mg | Ae 0-4 hrs, Median (Day 1, PO300): 6.58 mg | Ae 0-24 hrs, Geo. Mean (Day 1, PO300): 36.94 mg | Ae 0-24 hrs, Median (Day 1, PO300): 39.07 mg | Ae 4-8 hrs, Geo. Mean (Day 1, PO300): 6.42 mg | Ae 4-8 hrs, Mean (Day 1, PO300): 7.60 mg | Ae 4-8 hrs, Median (Day 1, PO300): 6.28 mg | Ae 8-12 hrs, Geo. Mean (Day 1, PO300): 7.22 mg | Ae 8-12 hrs, Mean (Day 1, PO300): 9.17 mg | Ae 8-12 hrs, Median (Day 1, PO300): 6.86 mg | Ae 12-24 hrs, Geo. Mean (Day 1, PO300): 14.19 mg | Ae 12-24 hrs, Mean (Day 1, PO300): 16.82 mg | Ae 12-24 hrs, Median (Day 1, PO300): 16.30 mg | Fe 0-24 hrs, Geo. Mean (Day 1, PO300): 6.16% | Fe 0-24 hrs, Mean (Day 1, PO300): 6.54% | Fe 0-24 hrs, Median (Day 1, PO300): 6.51% | Ae 0-4 hrs, Geo. Mean (Day 1, PO450): 3.96 mg | Ae 0-4 hrs, Mean (Day 1, PO450): 7.27 mg | Ae 0-4 hrs, Median (Day 1, PO450): 5.05 mg | Ae 0-24 hrs, Geo. Mean (Day 1, PO450): 34.07 mg | Ae 0-24 hrs, Median (Day 1, PO450): 37.30 mg | Ae 4-8 hrs, Geo. Mean (Day 1, PO450): 6.00 mg | Ae 4-8 hrs, Mean (Day 1, PO450): 7.11 mg | Ae 4-8 hrs, Median (Day 1, PO450): 6.16 mg | Ae 8-12 hrs, Geo. Mean (Day 1, PO450): 4.75 mg | Ae 8-12 hrs, Mean (Day 1, PO450): 5.36 mg | Ae 8-12 hrs, Median (Day 1, PO450): 5.27 mg | Ae 12-24 hrs, Geo. Mean (Day 1, PO450): 14.57 mg | Ae 12-24 hrs, Mean (Day 1, PO450): 16.92 mg | Ae 12-24 hrs, Median (Day 1, PO450): 15.98 mg | Fe 0-24 hrs, Geo. Mean (Day 1, PO450): 3.79% | Fe 0-24 hrs, Mean (Day 1, PO450): 3.99% | Fe 0-24 hrs, Median (Day 1, PO450): 4.14% | Ae 0-4 hrs, Geo. Mean (Day 5, IV_PO300): 3.89 mg | Ae 0-4 hrs, Mean (Day 5, IV_PO300): 7.74 mg | Ae 0-4 hrs, Median (Day 5, IV_PO300): 4.99 mg | Ae 0-24 hrs, Geo. Mean (Day 5, IV_PO300): 21.72 mg | Ae 0-24 hrs, Median (Day 5, IV_PO300): 31.29 mg | Ae 4-8 hrs, Geo. Mean (Day 5, IV_PO300): 5.22 mg | Ae 4-8 hrs, Mean (Day 5, IV_PO300): 8.38 mg | Ae 4-8 hrs, Median (Day 5, IV_PO300): 7.13 mg | Ae 8-12 hrs, Geo. Mean (Day 5, IV_PO300): 3.94 mg | Ae 8-12 hrs, Mean (Day 5, IV_PO300): 6.28 mg | Ae 8-12 hrs, Median (Day 5, IV_PO300): 6.47 mg | Ae 12-24 hrs, Geo. Mean (Day 5, IV_PO300): 7.31 mg | Ae 12-24 hrs, Mean (Day 5, IV_PO300): 10.71 mg | Ae 12-24 hrs, Median (Day 5, IV_PO300): 11.25 mg | Fe 0-24 hrs, Geo. Mean (Day 5, IV_PO300): 7.24% | Fe 0-24 hrs, Mean (Day 5, IV_PO300): 10.76% | Fe 0-24 hrs, Median (Day 5, IV_PO300): 10.43% | Ae 0-4 hrs, Geo. Mean (Day 5, PO300): 7.20 mg | Ae 0-4 hrs, Mean (Day 5, PO300): 10.02 mg | Ae 0-4 hrs, Median (Day 5, PO300): 9.35 mg | Ae 0-24 hrs, Geo. Mean (Day 5, PO300): 31.46 mg | Ae 0-24 hrs, Median (Day 5, PO300): 34.96 mg | Ae 4-8 hrs, Geo. Mean (Day 5, PO300): 9.17 mg | Ae 4-8 hrs, Mean (Day 5, PO300): 10.54 mg | Ae 4-8 hrs, Median (Day 5, PO300): 8.05 mg | Ae 8-12 hrs, Geo. Mean (Day 5, PO300): 5.02 mg | Ae 8-12 hrs, Mean (Day 5, PO300): 6.74 mg | Ae 8-12 hrs, Median (Day 5, PO300): 7.29 mg | Ae 12-24 hrs, Geo. Mean (Day 5, PO300): 10.71 mg | Ae 12-24 hrs, Mean (Day 5, PO300): 11.95 mg | Ae 12-24 hrs, Median (Day 5, PO300): 11.38 mg | Fe 0-24 hrs, Geo. Mean (Day 5, PO300): 10.49% | Fe 0-24 hrs, Mean (Day 5, PO300): 12.74% | Fe 0-24 hrs, Median (Day 5, PO300): 11.65% | Ae 0-4 hrs, Geo. Mean (Day 5, PO450): 9.50 mg | Ae 0-4 hrs, Mean (Day 5, PO450): 12.07 mg | Ae 0-4 hrs, Median (Day 5, PO450): 11.76 mg | Ae 0-24 hrs, Geo. Mean (Day 5, PO450): 43.60 mg | Ae 0-24 hrs, Median (Day 5, PO450): 50.26 mg | Ae 4-8 hrs, Geo. Mean (Day 5, PO450): 11.02 mg | Ae 4-8 hrs, Mean (Day 5, PO450): 19.74 mg | Ae 4-8 hrs, Median (Day 5, PO450): 10.30 mg | Ae 8-12 hrs, Geo. Mean (Day 5, PO450): 6.01 mg | Ae 8-12 hrs, Mean (Day 5, PO450): 7.54 mg | Ae 8-12 hrs, Median (Day 5, PO450): 5.62 mg | Ae 12-24 hrs, Geo. Mean (Day 5, PO450): 15.26 mg | Ae 12-24 hrs, Mean (Day 5, PO450): 18.59 mg | Ae 12-24 hrs, Median (Day 5, PO450): 20.23 mg | Fe 0-24 hrs, Geo. Mean (Day 5, PO450): 9.69% | Fe 0-24 hrs, Mean (Day 5, PO450): 12.19% | Fe 0-24 hrs, Median (Day 5, PO450): 11.17%
